According to paper PMC3337405 (Cancer Chemotherapy and Pharmacology, 2012):
Several values for one entry are separate records, joined by “and”; a condition that tells them apart may be missing. Equal values may be shown once. Values belong to the compound of their own block, whether it stands above or below them.

Assays:
QT interval = conditions: ref 16 (AC220), 17 (MLN518), 18 (sorafenib); cited from earlier work
[1] = human, in vivo
Method: (§2) Blood samples for PK analysis were collected predose and 0.5, 1, 2, 3, 4, 8, 12, and 24 h post dose on days 1 and 3 at the same time as ECG assessments. […] Noncompartmental analysis (WinNonlin™ version 5.2, Pharsight, Sunnyvale, California) was performed to determine the following PK parameters: C max, T max, minimum (trough) plasma concentration over a dosing interval (C min), and AUC calculated using a trapezoidal method. For moxifloxacin, the AUC from time 0 to the last measurable concentration sampling time was calculated (AUC0–tlast).

healthy volunteers [2] = test: Concentration–QT linear random-effects model; type: in vivo, human; conditions: for concentration versus QTcF slope: plasma concentration of the analyte after midostaurin dosing, day 3
From the text: Baseline QTcF was included in the model as a covariate. […] This exploratory analysis was applied to both the change from the time-matched baseline and the change from time-averaged baseline.

[3] = cited from earlier work
[4] = Plasma pharmacokinetics, noncompartmental analysis
Method: as §2

healthy volunteers [5] = test: Thorough QT/QTc study: QTcF change from baseline on day 3 (12-lead ECG); type: in vivo, human
From the text: This study was a phase I, randomized, double-blind, placebo- and active-controlled, 3-way, parallel-group study conducted at a single center in the United States and approved by the Arkansas Research Medical Testing, LLC, Institutional Review Board. The design followed the recommendations of the International Conference on Harmonisation of Technical Requirements for Registration of Pharmaceuticals for Human Use (ICH) E14 guideline on “The Clinical Evaluation of QT/QTc Interval Prolongation and Proarrhythmic Potential for Non-Antiarrhythmic Drugs” [19]. As such, the trial included a concurrent positive control group and addressed intrinsic variability by conducting multiple ECGs at baseline and during the study. The study was conducted according to the ethical principles of the Declaration of Helsinki, and written informed consent was obtained from each subject during screening.
The treatment regimen was selected to achieve maximal plasma exposure for QTc evaluation while minimizing the risks of excessive or prolonged exposure in healthy volunteers.
The baseline comparison was from day −1 to day 3 at matched time points.
The following hypothesis was tested to confirm that the study had sufficient assay sensitivity: [drawing 3] [drawing 4] where μmoxi(t) was the mean QTcF change from baseline observed following moxifloxacin 400 mg at time point t. If the null hypothesis was rejected, the study had sufficient sensitivity. The Simes method was used for the protection of an experiment-wise 5% type I error [22, 23]. With the Simes method, the original P values corresponding to 0.5, 1, 2, 3, and 4 h post baseline are ordered increasingly, that is, P 1 ≤ P 2 ≤ P 3 ≤ P 4 ≤ P 5. After the Simes correction, the P values were 5P 1, 5P 2/2, 5P 3/3, 5P 4/4, and P 5 respectively. If any of the 5 adjusted P values were <.05, assay sensitivity was claimed. Only the participants who completed all scheduled doses of study medication from day 1 to day 3 and had at least 1 ECG on day −1 (baseline) and at least 1 ECG on day 3 (time-matched day 3 data for the time-matched analysis) were included in the assay sensitivity test.
Electrocardiogram measurements at each time point were calculated as an average of 3 separate ECG extractions or replicates. (Each extraction was the mean of 3 beats.) If fewer than 3 measurements were available, the available samples were averaged (i.e., a minimum of 1 measure was required). For each subject, the time-matched baseline value was subtracted from the QT/QTc intervals to determine the change from baseline in QT/QTc intervals for that subject. The 2 null hypotheses described above were tested in a linear mixed-effect model with a compound symmetry covariance structure. The model included the baseline measure as covariate and treatment, time, and the treatment-by-time interaction as fixed effects, where time was a categorical variable and subject was a random effect.
The time-matched analysis was conducted on the QTcF change from the time-matched baseline as recommended by the ICH E14 guideline. Although modeling change from the time-matched baseline was the primary analysis, the change from the time-averaged baseline was also analyzed using the same model. For the averaged baseline, each triplicate ECG collection was averaged first, and then the averaged baseline was calculated based on all the averaged triplicate ECG and unscheduled ECGs.
(§1) Standard triplicate 12-lead ECGs were obtained at 9 time points over 24 h at baseline on day 3 and at 2 time points on day 1. Electrocardiogram analysis was performed at a blinded central reading facility (ERT, East Bridgewater, NJ) in digital format, with paper tracings obtained and archived immediately on site. Vital signs were assessed daily. Clinical laboratory parameters were assessed at baseline and at the end of study. Self-reported adverse events were continuously recorded from the first study treatment (placebo, day −1) through the end of study on day 4.

healthy volunteers [6] = test: Outlier analysis of QTc and other ECG parameters, ECG morphology; type: in vivo, human; conditions: for QTcB >30 ms, time-matched change from baseline, participants: text: 30- to 60-ms category
Method: Outlier analysis for QTc was also exploratory because this study was not powered to detect individuals with genetic sensitivity to potential QT-prolonging drugs. The nonspecific outlier criterion was a change from baseline in QTc interval of 30–60 ms.
as §1

healthy volunteers [7] = test: Adverse events and discontinuations; type: in vivo, human
Method: as §1, with “Electrocardiogram” for “Standard triplicate 12-lead ECGs were obtained at 9 time points over 24 h at baseline on day 3 and at 2 time points on day 1. Electrocardiogram”

QTcF interval = conditions: cited from earlier work
[8] = moxifloxacin 400 mg, 1 h post dose on day 3

Compound: CNC(=O)c1cc(Oc2ccc(NC(=O)Nc3ccc(Cl)c(C(F)(F)F)c3)cc2)ccn1 [sorafenib]
effect on QT interval in clinical trials (QT interval): induce prolongation of the QT interval

time of peak concentrations post dose [1]: 3 to 4 h | AUC0-12h, mean (SD) ([1]; po, 75 mg): 7848.2 (1579.9) ng * hour/mL | AUC0-24h, mean (SD) ([1]; po, 75 mg): 36 486.5 (9769.7) ng × hour/mL
Compound: CN(C(=O)c1ccccc1)[C@@H]1C[C@H]2O[C@@](C)([C@@H]1O)n1c3ccccc3c3c4c(c5c6ccccc6n2c5c31)C(=O)NC4 [CGP62221]

Tmax ([4]; human, plasma, oral, 75 mg, time of peak concentrations post dose, midostaurin dosing, days 1 and 3): 3 to 4 h | AUC(0-t) ([4]; human, plasma, po, 75 mg): 3510 ng·h/mL | Cmax ([4]; human, plasma, po, 75 mg, mean (SD), Day 1 (single dose), midostaurin 75 mg oral, plasma): 384 ng/mL | Cmax ([4]; human, plasma, po, 75 mg, mean (SD), Day 3 (twice daily), midostaurin 75 mg oral, plasma): 1250 ng/mL | Tmax ([4]; human, plasma, po, 75 mg, Tmax, median (range), Day 1 (single dose), midostaurin 75 mg oral, plasma): 4 h | Tmax ([4]; human, plasma, po, 75 mg, Tmax, median (range), Day 3 (twice daily), midostaurin 75 mg oral, plasma): 3.1 h
Compound: CO[C@@H]1[C@H](N(C)C(=O)c2ccccc2)C[C@H]2O[C@]1(C)n1c3ccccc3c3c4c(c5c6ccccc6n2c5c31)C(=O)N[C@H]4O [CGP52421]
concentration versus QTcF slope (healthy volunteers [2]): 0.2 | concentration versus QTcF slope (healthy volunteers [2]; listed as CPG52421): either negative or not statistically significant | concentration at steady state relative to midostaurin and CGP62221 ([3]; daily oral dosing of midostaurin, plasma): approximately seven | half-life ([3]; human participants): up to 1 month | treatment needed to reach the steady state ([3]; midostaurin dosing): 21 to 28 days

Compound: COc1c(N2C[C@@H]3CCCN[C@@H]3C2)c(F)cc2c(=O)c(C(=O)O)cn(C3CC3)c12 [Moxifloxacin, reference compound]
upper limit of the 95% CI of QTcF prolongation from time-matched baseline (healthy volunteers [5]; moxifloxacin 400 mg, 1 h post dose): 14.9 ms | lower bound of 95% CI, QTcF change from time-averaged baseline compared with placebo (healthy volunteers [5]; [8]): 7.6 ms | lower bound of the 1-sided 95% CI of QTcF prolongation from time-matched baseline (healthy volunteers [5]; [8]): 6.4 ms and > 5 ms | maximum mean QTcF change from time-averaged baseline compared with placebo (healthy volunteers [5]; [8]): 10.2 ms | maximum mean QTcF prolongation from time-matched baseline compared with placebo (healthy volunteers [5]; moxifloxacin single 400-mg dose, 1 h post dose on day 3): 10.7 ms | slope of QT change from baseline with increasing plasma concentration (healthy volunteers [2]; moxifloxacin, QT): 4.0 | slope of QTcB change from baseline with increasing plasma concentration (healthy volunteers [2]; moxifloxacin, QTcB): 2.6 | slope of QTcF change from baseline with increasing plasma concentration (healthy volunteers [2]; moxifloxacin, QTcF): 3.2 ms per μg/mL | new U-wave abnormalities (healthy volunteers [6]; 12-lead ECG): 1 case | new post baseline T-wave abnormalities (healthy volunteers [6]; 12-lead ECG): 4 participants | PR increase ≥25% and resultant PR >200 ms, participants (healthy volunteers [6]; safety set): 0 no. (%) | QRS increase ≥25% and resultant QRS >100 ms, participants (healthy volunteers [6]; safety set): 0 no. (%) | QTcB >60 ms, time-matched change from baseline, participants (healthy volunteers [6]; safety set): 0 no. (%) | QTcF >30 ms, time-matched change from baseline, participants (healthy volunteers [6]; safety set): 0 no. (%) | QTcF >60 ms, time-matched change from baseline, participants (healthy volunteers [6]; safety set): 0 no. (%) | QTcI >30 ms, time-matched change from baseline, participants (healthy volunteers [6]; safety set): 0 no. (%) | QTcI >60 ms, time-matched change from baseline, participants (healthy volunteers [6]; safety set): 0 no. (%) | RR decrease ≥25% and resultant RR <600 ms, participants (healthy volunteers [6]; safety set): 0 no. (%) | RR increase ≥25% and resultant RR >1,200 ms, participants (healthy volunteers [6]; safety set): 0 no. (%) | QTcB New >450 ms, participants (healthy volunteers [6]; safety set, post baseline, text: between 450 and 480 ms): 1 (2.3%) no. (%) | QTcB >30 ms, time-matched change from baseline, participants (healthy volunteers [6]; safety set): 7 (15.9) no. (%) | QTcB >30 ms, time-matched change from baseline, participants (healthy volunteers [6]; safety set, listed as moxifloxacin): 7 (15.9%) no. (%) | Discontinued, main cause Adverse event(s) (healthy volunteers [7]; randomized set): 0 (0.0) no. (%) | Discontinued, main cause Death (healthy volunteers [7]; randomized set): 0 (0.0) no. (%) | Abdominal pain (healthy volunteers [7]; safety set, all grade 1/2): 0 (0.0) no. (%) | Arthralgia (healthy volunteers [7]; safety set, all grade 1/2): 0 (0.0) no. (%) | Diarrhea (healthy volunteers [7]; safety set, all grade 1/2): 1 (2.3) no. (%) | Dizziness (healthy volunteers [7]; safety set, all grade 1/2): 1 (2.3) no. (%) | Dry mouth (healthy volunteers [7]; safety set, all grade 1/2): 0 (0.0) no. (%) | Dysmenorrhea (healthy volunteers [7]; safety set, all grade 1/2): 0 (0.0) no. (%) | Dyspepsia (healthy volunteers [7]; safety set, all grade 1/2): 1 (2.3) no. (%) | Eructation (healthy volunteers [7]; safety set, all grade 1/2): 0 (0.0) no. (%) | Flatulence (healthy volunteers [7]; safety set, all grade 1/2): 1 (2.3) no. (%) | Flushing (healthy volunteers [7]; safety set, all grade 1/2): 0 (0.0) no. (%) | Headache (healthy volunteers [7]; safety set, all grade 1/2): 4 (9.1) no. (%) | Hiccups (healthy volunteers [7]; safety set, all grade 1/2): 0 (0.0) no. (%) | Hot flushes (healthy volunteers [7]; safety set, all grade 1/2): 0 (0.0) no. (%) | Nausea (healthy volunteers [7]; safety set, all grade 1/2): 5 (11.4) no. (%) | Pollakiuria (healthy volunteers [7]; safety set, all grade 1/2): 1 (2.3) no. (%) | Rash (healthy volunteers [7]; safety set, all grade 1/2): 1 (2.3) no. (%) | Salivary hypersecretion (healthy volunteers [7]; safety set, all grade 1/2): 0 (0.0) no. (%) | Sexually transmitted disease (healthy volunteers [7]; safety set, all grade 1/2): 0 (0.0) no. (%) | Vomiting (healthy volunteers [7]; safety set, all grade 1/2): 1 (2.3) no. (%) | Participants with adverse events (healthy volunteers [7]; safety set, all grade 1/2, 4-day evaluation period): 9 (20.5) no. (%) | Tachycardia (healthy volunteers [7]; safety set, grade 1, midostaurin-arm cases occurred during placebo run-in (day −1)): 0 (0.0) no. (%) | Cmax previously reported ([3]; moxifloxacin): 2830 ng/mL | mean slope estimates, concentration–QTc (QTcF interval; 5 other thorough QTc studies): 2.5 ms per μg/mL and 2.4 ms per μg/mL and 3.3 ms per μg/mL and 3.5 ms per μg/mL and 4.3 ms per μg/mL | effect on QTc intervals (QTcF interval): prolong QTc intervals in a dose-dependent manner | expected effect on the QTcF interval (QTcF interval; previous studies): 8 to 13 ms | Cmax ([4]; human, plasma, oral, 400 mg, geometric mean, moxifloxacin 400 mg overencapsulated, day 3): 2500 ng/mL | Cmax ([4]; human, plasma, oral, 400 mg, mean, moxifloxacin 400 mg overencapsulated, day 3): 2540 ng/mL | Cmax ([4]; human, plasma, oral, 400 mg, median, moxifloxacin 400 mg overencapsulated, day 3): 2460 ng/mL | Tmax ([4]; human, plasma, oral, 400 mg, Tmax, median, moxifloxacin 400 mg overencapsulated, day 3): 2.1 h | Cmax, mean ([4]; moxifloxacin 400 mg overencapsulated, day 3): 2544 ng/mL
